Target: T1, USP5 (Homo sapiens, UniProt P45974)
T1 construct: full-length
T1 sequence (P45974 2-858): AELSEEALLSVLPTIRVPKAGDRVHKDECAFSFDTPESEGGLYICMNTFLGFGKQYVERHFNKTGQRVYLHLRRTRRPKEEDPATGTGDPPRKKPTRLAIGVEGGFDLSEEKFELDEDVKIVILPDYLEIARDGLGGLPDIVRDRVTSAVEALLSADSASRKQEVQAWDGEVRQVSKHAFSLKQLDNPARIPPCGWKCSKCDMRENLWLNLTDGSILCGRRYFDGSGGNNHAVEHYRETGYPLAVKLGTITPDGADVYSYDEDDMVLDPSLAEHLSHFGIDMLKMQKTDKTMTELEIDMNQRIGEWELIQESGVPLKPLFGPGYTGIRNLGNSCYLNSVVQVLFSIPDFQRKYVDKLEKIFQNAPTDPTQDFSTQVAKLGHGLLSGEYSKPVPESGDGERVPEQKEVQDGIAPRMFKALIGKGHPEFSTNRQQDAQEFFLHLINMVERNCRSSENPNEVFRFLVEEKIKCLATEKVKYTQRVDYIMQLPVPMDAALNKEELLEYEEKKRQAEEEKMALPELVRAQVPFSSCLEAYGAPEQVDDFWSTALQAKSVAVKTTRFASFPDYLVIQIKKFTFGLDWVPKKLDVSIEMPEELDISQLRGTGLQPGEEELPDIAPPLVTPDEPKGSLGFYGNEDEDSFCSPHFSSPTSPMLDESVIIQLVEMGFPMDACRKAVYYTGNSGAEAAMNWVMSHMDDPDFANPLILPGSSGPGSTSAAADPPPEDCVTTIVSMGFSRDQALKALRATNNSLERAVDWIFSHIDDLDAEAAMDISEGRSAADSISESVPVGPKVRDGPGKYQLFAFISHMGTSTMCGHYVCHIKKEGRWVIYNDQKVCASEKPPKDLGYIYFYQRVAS
Assay: microscale thermophoresis with purified labelled USP5
Type: binding

SMILES: O=C(CCCCCCC(=O)Nc1ccccc1)NO [SAHA]
- Kd: 2.76 µM
